Tests used:
Type in all cases: physicochemical
[1] = Moisture sorption/desorption analysis (VTI SGA-100); details: for Weight % chg: Table 3
Description: Moisture sorption/desorption data were collected on a VTI SGA-100 Vapor Sorption Analyzer. Sorption and desorption data were collected over a range of 5 to 95% relative humidity (RH) at 10% RH increments under a nitrogen purge. Sodium chloride (NaCl) and polyvinylpyrrolidone (PVP) were used as the calibration standards. Equilibrium criteria used for analysis were less than 0.0100% weight change in 5 minutes, with a maximum equilibration time of 180 minutes if the weight criterion was not met. Data collected were not corrected for the initial moisture content of the samples.

[2] = Relative humidity stress experiments, XRPD after storage over saturated salt solutions; details: Sodium Chloride, 75.5 % RH @ 20° C., 27 days
Description: In relative humidity (RH) stress analysis, open vials containing solid samples were placed inside chambers containing saturated salt solutions along with a small amount of the undissolved salt. The chambers were sealed and allowed to stand at ambient temperature for several days. Samples were analyzed by X-ray powder diffraction (XRPD) immediately after removing the sample from the RH chamber. The RH values these salt solutions were obtained from an ASTM standard.

[3] = Thermogravimetric analysis (TGA); details: 25 to 150° C.; listed as A
Description: Thermogravimetric analysis (TGA) was carried out on TA Instruments TGA 2050 or 2950. The calibration standards were nickel and Alumel™. Samples were placed on a clean, aluminum sample pan, accurately weighed, and inserted into the TGA furnace. The samples were heated in nitrogen at a rate of 10° C./min, from 35° C. to a final temperature of 250° C.

[4] = Solid-state stress (compression, heating, grinding, storage) with XRPD form check; details: no solvent; Hydraulic Press 10,000 lbs 1 hour
Description: X-ray powder diffraction analyses were carried out on a Shimadzu XRD-6000 X-ray powder diffractometer using Cu Kα radiation having a wavelength of 1.5406 Å. The instrument is equipped with a fine-focus X-ray tube. The tube power was set by setting potential difference at 40 kV, and current 40 mA. The divergence and scattering slits were set at 1° and the receiving slit was set at 0.15 mm. Diffracted radiation was detected by a NaI scintillation detector. A theta-two theta continuous scan at 3°/min (0.4 sec/0.02° step) from 2.5 to 40 °2θ was performed. A silicon standard was analyzed each day to check the instrument alignment. Each sample was analyzed in a quartz sample holder. A variable temperature (VT-XRPD) experiment was performed on one form. The sample was prepared for analysis by pressing it into a variable temperature holder.

Nc1ncn([C@H]2C[C@H](O)[C@@H](CO)O2)c(=O)n1 [Form A]
total weight loss in the region from 5 to 45% RH ([1]; 5 to 45% RH): about 0.1% | total weight gain from 5 to 95% RH ([1]; 5 to 95% RH, listed as form A): 7.3% | Weight % chg ([1]; desorption, RH 4.93 %, 24.89 deg C, 533.4 min): 7.1472% | Weight % chg ([1]; desorption, RH 15.15 %, 24.89 deg C, 524.9 min): 7.1528% | Weight % chg ([1]; desorption, RH 25.13 %, 24.88 deg C, 515.4 min): 7.1586% | Weight % chg ([1]; desorption, RH 35.12 %, 24.88 deg C, 504.8 min): 7.1671% | Weight % chg ([1]; desorption, RH 45.07 %, 24.87 deg C, 493.8 min): 7.1753% | Weight % chg ([1]; desorption, RH 55.14 %, 24.88 deg C, 480.8 min): 7.1837% | Weight % chg ([1]; desorption, RH 65.19 %, 24.88 deg C, 467.8 min): 7.1925% | Weight % chg ([1]; desorption, RH 75.49 %, 24.88 deg C, 454.8 min): 7.2022% | Weight % chg ([1]; desorption, RH 85.43 %, 24.89 deg C, 443.8 min): 7.2106% | Weight % chg ([1]; sorption, RH 5.14 %, 24.92 deg C, 27.9 min): −0.0698% | Weight % chg ([1]; sorption, RH 14.81 %, 24.92 deg C, 41.6 min): −0.0784% | Weight % chg ([1]; sorption, RH 24.88 %, 24.92 deg C, 51.2 min): −0.0804% | Weight % chg ([1]; sorption, RH 34.89 %, 24.92 deg C, 62.2 min): −0.0733% | Weight % chg ([1]; sorption, RH 44.86 %, 24.91 deg C, 82.2 min): −0.1004% | Weight % chg ([1]; sorption, RH 54.83 %, 24.91 deg C, 93.2 min): −0.0931% | Weight % chg ([1]; sorption, RH 64.82 %, 24.91 deg C, 107.7 min): −0.0775% | Weight % chg ([1]; sorption, RH 74.73 %, 24.91 deg C, 118.3 min): −0.0646% | Weight % chg ([1]; sorption, RH 84.63 %, 24.91 deg C, 304.2 min): 3.8389% | Weight % chg ([1]; sorption, RH 94.67 %, 24.90 deg C, 433.1 min): 7.2104% | Weight % chg ([1]; start, RH 1.46 %, 24.92 deg C, 0.0 min): 0.0000% | solid form after moisture sorption/desorption analysis ([1]; after sorption/desorption cycle, listed as form A): retained during the desorption cycle as decitabine polymorph form B | weight (water) lost upon equilibration to 5% RH ([1]; equilibration to 5% RH, listed as form A): 0.06% | RH above which moisture sorption begins ([1]; sorption cycle): above 75 % RH | XRPD result [2]: converts into form B | TGA Results: percent weight change from 25 to 150° C. [3]: <0.1% | XRPD Pattern [4]: did not induce a form change
